# Laboratory results from patent US11938137B2, “Lipid prodrugs of mycophenolic acid and uses thereof” (PureTech LYT, Inc., priority 2017, dated 2024).
# Test: Lymphatic transport assay in mesenteric lymph-duct cannulated rats
# Assay type: in vivo, rat
# Settings: as E2 but dose 1 mg/rat; class symbols
# Procedure: In order to assess the lymphatic transport of disclosed lipid prodrugs in rats, the mesenteric lymph ducts of the rats used in this study were cannulated to allow continual collection of mesenteric lymph. Lipid formulations containing the compound of interest were then administered to the animals, lymph was collected, and drug concentrations in the lymph samples were quantified.
# Lipid-based formulations of the compounds of the invention or control compounds were prepared as previously described (Trevaskis, N. L. et al., Pharmaceutical Research, 2005, 22(11), 1863-1870, WO 2016/023082, and WO 2017/041139, hereby incorporated by reference.
# In brief, either 1 or 2 mg of test prodrug, 40 mg oleic acid and 25 mg Tween 80 were mixed in a glass vial and incubated at 37° C. for 12-18 h to equilibrate. An aqueous phase consisting of 5.6 ml phosphate buffered saline (PBS, pH 7.4) was subsequently added to the lipid phase (MPA was dissolved in PBS for the preparation of MPA containing formulations) and the formulation emulsified by ultrasonication with a Misonix XL 2020 ultrasonic processor (Misonix, Farmingdale, NY, USA) equipped with a 3.2-mm microprobe tip running at 30% of the maximal amplitude of 240 μm and a frequency of 20 kHz for 2 min at room temperature. Doses for administering to more than one animal can be prepared in one batch by suitably increasing the quantities given above. Drug/prodrug concentrations in all formulations were verified using HPLC-MS.
# Male Sprague-Dawley (SD) rats were selected for the lymphatic transport studies. Rats (typically 240-320 g) were maintained on a standard diet and fasted overnight with free access to water prior to experiments.
# Anesthetized rats were placed on a heated pad at 37° C. and cannulas inserted into the duodenum (for formulation administration and rehydration), mesenteric lymph duct (for lymph collection), and carotid artery (in cases where blood collection was conducted). Post-surgery, rats were re-hydrated for 0.5 h via intraduodenal infusion of normal saline at 2.8 mL/h. The lipid formulations were infused into the duodenum at 2.8 mL/h for 2 h after which, normal saline was infused at 2.8 mL/h for the remainder of the experiment. Lymph was continuously collected for up to 8 h into pre-weighed Eppendorf tubes containing 10 μL of 1,000 IU/mL heparin. The collection tubes were changed hourly and lymph flow was measured gravimetrically. Aliquots of hourly lymph samples were stored at −20° C. prior to assay.
# Drug concentration in lymph is expressed as total drug and includes free drug and drug associated with different glycerides. Lymph samples are first treated with a lipase or other appropriate conditions to liberate free active agent prior to measurement of active agent levels in the lymph. Treatment with a lipase or other hydrolysis conditions liberates free active agent from any corresponding re-esterified glycerides. Porcine pancreatic lipase is appropriate for this purpose. Alternatively, hydrolysis with 0.5 M NaOH may be used. For MPA “phenol” prodrugs (i.e. prodrugs linked to the triglyceride at the aromatic —OH group of MPA), hydrolysis was performed with 0.5 M NaOH except for the lymph samples collected from 3 rats in the group of compound I-20 (MPA-O-C12α′βMe-TG), which were hydrolyzed by porcine pancreatic lipase.
# Transport of compounds into lymph during each hourly collection period was calculated from the product of the volume of lymph collected and the measured concentrations in lymph. For fluorescently-labelled compounds such as a BDP-conjugate, the concentrations of total compound may be measured by fluorescence spectroscopy without hydrolysis.
# The results of the lymphatic transport assays are summarized in Table 2, below, and FIGS. 1-19. Table 2 summarizes lymphatic transport of total MPA related compound (% of administered dose) following intraduodenal infusion to anaesthetised, mesenteric lymph-duct cannulated rats. […]
row,SMILES,"Cumulative lymphatic transport % dose (Mean ± SD, or Range if n = 2)"
1,"CCCCCCCCCCCCCCCC(=O)OCC(COC(=O)CCCCCCCCCCCCCCC)OC(=O)CCCCCCCCCCCOC(=O)CC/C(C)=C/Cc1c(O)c2c(c(C)c1OC)COC2=O [I-37, (E)-2-((12-((6-(4-hydroxy-6-methoxy-7-methyl-3-oxo-1,3-dihydroisobenzofuran-5-yl)-4-methylhex-4-enoyl)oxy)dodecanoyl)oxy)propane-1,3-diyl dipalmitate]",A (greater than 10% (>10%))
2,"CCCCCCCCCCCCCCCC(=O)OCC(COC(=O)CCCCCCCCCCCCCCC)OC(=O)CCCCCCCCCCCCCCCCCOC(=O)CC/C(C)=C/Cc1c(O)c2c(c(C)c1OC)COC2=O [I-38, (E)-2-((18-((6-(4-hydroxy-6-methoxy-7-methyl-3-oxo-1,3-dihydroisobenzofuran-5-yl)-4-methylhex-4-enoyl)oxy)octadecanoyl)oxy)propane-1,3-diyl dipalmitate]",B (between 1% and 10% (1%-10%))

# Same assay, conditions: total MPA related compound, intraduodenal infusion, anesthetised mesenteric lymph-duct cannulated rats; class symbols
row,SMILES,"Cumulative lymphatic transport % dose (Mean ± SD, or Range if n = 2)"
1,"CCCCCCCCCCCCCCCC(=O)OCC(COC(=O)CCCCCCCCCCCCCCC)OC(=O)CC(C)CCCC(=O)Oc1c(C/C=C(\C)CCC(=O)OC)c(OC)c(C)c2c1C(=O)OC2 (stereo not drawn) [I-16, MPA-(O—C10bMe-2-TG)-OMe]",A (greater than 10% (>10%))
2,CCCCCCCCCCCCCCCC(=O)OCC(COC(=O)CCCCCCCCCCCCCCC)OC(=O)CCC(=O)Oc1c(C/C=C(\C)CCC(=O)OC)c(OC)c(C)c2c1C(=O)OC2 [I-17],C (less than 1% and greater than 0.24% (<1% and >0.24%))
3,CCCCCCCCCCCCCCCC(=O)OCC(COC(=O)CCCCCCCCCCCCCCC)OC(=O)CCCCC(=O)Oc1c(C/C=C(\C)CCC(=O)OC)c(OC)c(C)c2c1C(=O)OC2 [I-18],B (between 1% and 10% (1%-10%))
4,"CCCCCCCCCCCCCCCC(=O)OCC(COC(=O)CCCCCCCCCCCCCCC)OC(=O)CC(C)CCCCCCCC(C)C(=O)OCOC(=O)Oc1c(C/C=C(\C)CCC(=O)OC)c(OC)c(C)c2c1C(=O)OC2 (stereo not drawn) [I-21, (E)-12-(1,3-Bis(palmitoyloxy)propan-2-yl) 1-(((((6-methoxy-5-(6-methoxy-3-methyl-6-oxohex-2-en-1-yl)-7-methyl-3-oxo-1,3-dihydroisobenzofuran-4-yl)oxy)carbonyl)oxy)methyl) 2,10-dimethyldodecanedioate]",B (between 1% and 10% (1%-10%))
5,"CCCCCCCCCCCCCCCC(=O)OCC(COC(=O)CCCCCCCCCCCCCCC)OCCCCOC(=O)CC/C(C)=C/Cc1c(O)c2c(c(C)c1OC)COC2=O [I-25, (E)-2-(4-((6-(4-hydroxy-6-methoxy-7-methyl-3-oxo-1,3-dihydroisobenzofuran-5-yl)-4-methylhex-4-enoyl)oxy)butoxy)propane-1,3-diyl dipalmitate]",C (less than 1% and greater than 0.24% (<1% and >0.24%))
6,"CCCCCCCCCCCCCCCC(=O)OCC(COC(=O)CCCCCCCCCCCCCCC)OCCCCCCOC(=O)CC/C(C)=C/Cc1c(O)c2c(c(C)c1OC)COC2=O [I-26, (E)-2-((6-((6-(4-hydroxy-6-methoxy-7-methyl-3-oxo-1,3-dihydroisobenzofuran-5-yl)-4-methylhex-4-enoyl)oxy)hexyl)oxy)propane-1,3-diyl dipalmitate]",C (less than 1% and greater than 0.24% (<1% and >0.24%))
7,"CCCCCCCCCCCCCCCC(=O)OCC(COC(=O)CCCCCCCCCCCCCCC)OC(=O)OCCCOC(=O)CC/C(C)=C/Cc1c(O)c2c(c(C)c1OC)COC2=O [I-27, (E)-2-(((3-((6-(4-hydroxy-6-methoxy-7-methyl-3-oxo-1,3-dihydroisobenzofuran-5-yl)-4-methylhex-4-enoyl)oxy)propoxy)carbonyl)oxy)propane-1,3-diyl dipalmitate]",B (between 1% and 10% (1%-10%))
8,"CCCCCCCCCCCCCCCC(=O)OCC(COC(=O)CCCCCCCCCCCCCCC)OC(=O)CCc1ccc(OC(=O)CC/C(C)=C/Cc2c(O)c3c(c(C)c2OC)COC3=O)cc1 [I-28, (E)-2-((3-(4-((6-(4-hydroxy-6-methoxy-7-methyl-3-oxo-1,3-dihydroisobenzofuran-5-yl)-4-methylhex-4-enoyl)oxy)phenyl)propanoyl)oxy)propane-1,3-diyl dipalmitate]",B (between 1% and 10% (1%-10%))
9,"CCCCCCCCCCCCCCCC(=O)OCC(COC(=O)CCCCCCCCCCCCCCC)OC(=O)CCCCCCCCCCC(=O)Oc1c(C/C=C(\C)CCC(=O)OC)c(OC)c(C)c2c1C(=O)OC2 [I-30, (E)-1-(1,3-bis(palmitoyloxy)propan-2-yl) 12-(6-methoxy-5-(6-methoxy-3-methyl-6-oxohex-2-en-1-yl)-7-methyl-3-oxo-1,3-dihydroisobenzofuran-4-yl) dodecanedioate]",A (greater than 10% (>10%))
10,"CCCCCCCCCCCCCCCC(=O)OCC(COC(=O)CCCCCCCCCCCCCCC)OC(=O)CC(C)CCCCCCCCCCCC(=O)Oc1c(C/C=C(\C)CCC(=O)OC)c(OC)c(C)c2c1C(=O)OC2 (stereo not drawn) [I-31, (E)-1-(1,3-bis(palmitoyloxy)propan-2-yl) 15-(6-methoxy-5-(6-methoxy-3-methyl-6-oxohex-2-en-1-yl)-7-methyl-3-oxo-1,3-dihydroisobenzofuran-4-yl) 3-methylpentadecanedioate]",A (greater than 10% (>10%))
11,"CCCCCCCCCCCCCCCC(=O)OCC(COC(=O)CCCCCCCCCCCCCCC)OC(=O)CC(C)CCCCCCCC(C)C(=O)Oc1c(C/C=C(\C)CCC(=O)OCCN2CCOCC2)c(OC)c(C)c2c1C(=O)OC2 (stereo not drawn) [I-32, (E)-12-(1,3-bis(palmitoyloxy)propan-2-yl) 1-(6-methoxy-7-methyl-5-(3-methyl-6-(2-morpholinoethoxy)-6-oxohex-2-en-1-yl)-3-oxo-1,3-dihydroisobenzofuran-4-yl) 2,10-dimethyldodecanedioate]",A (greater than 10% (>10%))
12,"CCCCCCCCCCCCCCCC(=O)OCC(COC(=O)CCCCCCCCCCCCCCC)OC(=O)CCCCCCOC(=O)CC/C(C)=C/Cc1c(O)c2c(c(C)c1OC)COC2=O [I-36, (E)-2-((7-((6-(4-hydroxy-6-methoxy-7-methyl-3-oxo-1,3-dihydroisobenzofuran-5-yl)-4-methylhex-4-enoyl)oxy)heptanoyl)oxy)propane-1,3-diyl dipalmitate]",B (between 1% and 10% (1%-10%))
13,CCCCCCCCCCCCCCCC(=O)OCC(COP(=O)(O)OCC[N+](C)(C)C)OC(=O)CC/C(C)=C/Cc1c(O)c2c(c(C)c1OC)COC2=O (stereo not drawn) [I-39],C (less than 1% and greater than 0.24% (<1% and >0.24%))
14,CCCCCCCCCCCCCCCC(=O)OCC(COC(=O)CCCCCCCCCCCCCCC)OC(=O)C(C)CCCCCCCCC(C)C(=O)OCOc1c(C/C=C(\C)CCC(=O)OC)c(OC)c(C)c2c1C(=O)OC2 (stereo not drawn) [I-41],A (greater than 10% (>10%))
15,CCCC(=O)OCC(COC(=O)CCC)OC(=O)CC(C)CCCCCCCCCCCCOC(=O)CC/C(C)=C/Cc1c(O)c2c(c(C)c1OC)COC2=O (stereo not drawn) [I-43],A (greater than 10% (>10%))
16,CCCCCCCCCCCCCCCC(=O)OCC(COC(=O)CCCCCCCCCCCCCCC)OC(=O)CC(C)CCCCCCCC(C)C(=O)OCOc1c(C/C=C(\C)CCC(=O)OC)c(OC)c(C)c2c1C(=O)OC2 (stereo not drawn) [I-44],A (greater than 10% (>10%))
